Results as given in patent US20240226211A9, “SEAWEED EXTRACTS, ISOLATED COMPOUNDS, AND METHODS OF TREATMENT” (University of Florida Research Foundation, Incorporated, priority 2017, published 2024).

Columns and labels:
[1] = test system: zebrafish; experiment: Phenotypic toxicity in zebrafish; assay type: in vivo, Danio rerio; conditions: embryos and adults
[2] = test system: Nqo1; experiment: Nqo1 transcript levels in RAW264.7 macrophage cells; assay type: cell-based, mouse; conditions: 10 μM Compound 1, IFN-γ
Protocol: The RNeasy Mini Kit (Qiagen) was used to collect total RNA from cells, while for mouse tissue, TRIzol reagent (Invitrogen) was used. In each case, total RNAs (2 μg) were reverse-transcribed into cDNAs, which were used as templates for TaqMan gene expression assay (Applied Biosystems) and detected using the 7300 Real-Time PCR System (Applied Biosystems). Each qPCR sample was tested in triplicate as a 25 μL total reaction volume (12.5 μL of Taqman 2× universal master mix, 1.25 μL of a 20× TaqMan gene expression assay probe, 1 μL of the above cDNA, and 10.25 μL of RNase-free sterile water). The qPCR method was designed as following: 50° C. for 2 min, 95° C. for 10 min, and 40 cycles of 95° C. for 15 s and 60° C. for 1 min. Endogenous controls used included GAPDH for IMR-32 cells and β-actin to normalize for RAW264.7 cells and mouse tissues.
RAW264.7 cells were seeded in 6-well plates (8×10^5 cells/well) and incubated at 37° C. overnight.

[3] = Toxicity observation in mice after oral gavage; assay type: in vivo; conditions: oral gavage 3 consecutive days
Protocol: The experiments were approved by the Institutional Animal Care & Use Committee at the University of Florida. Groups of 5-10 wild type male mice (C57BL/6J) were used for each treatment type. The mice were maintained under approved standard conditions. Cymopol (1) and the non-polar extract (NP extract) were dissolved in Chremophor EL (Sigma) containing 10% DMSO and administered via oral gavage for 3 consecutive days, with 24 h between each treatment. […] 12 h following the final treatment, the mice were euthanized in 100% CO2. The tissues were harvested immediately, frozen on dry ice, and kept at −80° C. until analyzed.

[4] = test system: NQO1; experiment: Immunoblot of NQO1 after NAC pre-treatment in IMR-32 cells; assay type: cell-based, human; conditions: pre-treated with N-acetylcysteine
Protocol: IMR-32 cells were seeded into 6-well plates (7×10^5 cells/well) and incubated at 37° C. for 24 h. The cells were then treated with a solvent control (DMSO, 1%, v/v), isolated compounds, or extracts. After 24 h, cells were lysed in 200 μL of PhosphoSafe buffer (Novagen). Protein concentrations were measured by using a BCA assay kit (Pierce). Equal amounts of total protein were separated using SDS-PAGE (NuPAGE® Novex® 4-12% Bis-Tris Mini gels, Invitrogen) and transferred onto a PVDF membrane. Membranes were blocked overnight with 5% BSA at 4° C. and incubated with indicated primary antibodies for 2 h at room temperature. After washing, the membranes were then incubated with the corresponding secondary antibodies (HRP-linked) for 1 h at room temperature and detected with Supersignal Femto Western Blotting kit (Pierce). For assays in the presence of N-acetylcysteine (NAC), the cells were pretreated with the antioxidant (NAC at 1 mM) for 2 h prior to treatment with the solvent control, isolated compounds, or extracts.

[5] = test system: Staphylococcus aureus; experiment: Preliminary antibacterial testing; assay type: cell-based
[6] = biological target: T1, Keap1 (Cys-151) (Homo sapiens, UniProt Q14145); experiment: Keap1 Cys-151 reactivity in co-transfected HEK293 cells; assay type: cell-based; conditions: for Keap1-associated Cul3 / Keap1-Cul3 interaction: Keap1-CBD and HA-Cul3
T1 construct: expressed in transfected cells; host or cells: HEK293
From the text: The ARE-luciferase reporter construct (ARE-luc) contains the core sequence of human NQO1-ARE1. […] Mol. Cell. […] The Keap1-CBD plasmid carries the entire open reading frame (ORF) of human Keap1 fused to the chitin binding domain (CBD) of the Bacillus circulans chitinase A1 gene upstream of the Keap1 stop codon. Oligonucleotide-directed mutagenesis was used to generate the Keap1-C151S-CBD and Keap1-C288S-CBD plasmids. The HA-Cul3 plasmid was constructed by fusing an N-terminal hemagglutinin (HA) tag with a cDNA sequence coding for amino acids 1-380 of human Cul3 gene. The Gal4-Neh2 expression vector contains the codons for the first 97 amino acids (Neh2 domain) of human Nrf2 fused to the ORF of the Gal4 DNA-binding domain
The reactivity at the amino acid level of KEAP1 was then investigated. […] In order to evaluate specific cysteine residues which may be alkylated in the presence of cymopols, HEK293 cells were co-transfected with either a mock plasmid, a wild-type Keap1-CBD, or a Keap1-C151S-CBD and HA-Cul3 (to evaluate Cul3 binding inhibition upon cymopol addition), HA-Nrf2 (to evaluate Nrf2-Keap1 interactions), or Gal4-Neh2 and HA-Ub (to evaluate ubiquitination patterns of Nrf2).

T1 sequence (Q14145 whole entry): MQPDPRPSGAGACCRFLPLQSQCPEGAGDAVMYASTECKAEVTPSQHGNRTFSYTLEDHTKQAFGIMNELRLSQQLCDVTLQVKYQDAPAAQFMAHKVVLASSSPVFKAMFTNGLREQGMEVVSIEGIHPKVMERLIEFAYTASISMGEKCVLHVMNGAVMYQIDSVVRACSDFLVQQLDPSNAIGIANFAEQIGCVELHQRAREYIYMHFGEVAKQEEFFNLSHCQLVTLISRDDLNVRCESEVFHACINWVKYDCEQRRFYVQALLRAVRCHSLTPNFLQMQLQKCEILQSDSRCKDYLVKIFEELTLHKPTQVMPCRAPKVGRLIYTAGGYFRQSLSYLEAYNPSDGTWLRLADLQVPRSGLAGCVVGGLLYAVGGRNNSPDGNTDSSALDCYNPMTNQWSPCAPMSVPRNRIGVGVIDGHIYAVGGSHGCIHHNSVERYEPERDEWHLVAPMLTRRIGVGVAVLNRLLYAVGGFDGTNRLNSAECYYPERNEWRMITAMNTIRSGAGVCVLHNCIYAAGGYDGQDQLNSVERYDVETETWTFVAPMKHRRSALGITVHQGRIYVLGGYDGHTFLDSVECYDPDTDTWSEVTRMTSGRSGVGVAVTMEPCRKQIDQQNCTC

**Q.** Which results are given for `CC(C)=CCC/C(C)=C/Cc1cc(O)c(Br)cc1O` [Compound 1, (E)-2-bromo-5-(3,7-dimethylocta-2,6-dien-1-yl)benzene-1,4-diol]?
**A.** toxicity in zebrafish [1]: demonstrate toxicities at fairly low concentrations; increase of Nqo1 transcript levels [2]: > 96%; apparent toxicity [3]: No apparent toxicity was observed; translation of NQO1 after NAC pre-treatment [4]: still able to induce the translation of NQO1; antibacterial activity [5]: inhibited; Keap1-associated Cul3 / Keap1-Cul3 interaction [6]: increase binding of Keap1-Cul3 interaction; Keap1-associated Cul3 / Keap1-Cul3 interaction ([6]; listed as compound 1): reduced; dimerization of Keap1 ([6]; Keap1-CBD and HA-Nrf2, dependent on Cys-151): increase dimerization of Keap1; Neh2 ubiquitination ([6]; wild-type Keap1, Gal4-Neh2 and HA-Ub, preliminary data): less Neh2 ubiquitination; levels of Neh2 ([6]; wild-type Keap1, preliminary data): higher levels of Neh2
